Test results: US20210070748A1, “INHIBITORS OF BRUTONS TYROSINE KINASE” (Pharmacyclics LLC, priority 2015, published 2021)

Assays:
Type in all cases: biochemical
[1] = molecular target: LCK (Homo sapiens, UniProt P06239); assay: Inhibition of a panel of kinases, in vitro HotSpot kinase assay: LCK; details: D-compounds panel data; 1 μM ATP; read-out: IC50 LCK
[2] = molecular target: T1, TEC (Homo sapiens, UniProt P42680); assay: Inhibition of a panel of kinases, in vitro HotSpot kinase assay: TEC; details: D-compounds panel data; 1 μM ATP
T1 sequence (P42680 1-631): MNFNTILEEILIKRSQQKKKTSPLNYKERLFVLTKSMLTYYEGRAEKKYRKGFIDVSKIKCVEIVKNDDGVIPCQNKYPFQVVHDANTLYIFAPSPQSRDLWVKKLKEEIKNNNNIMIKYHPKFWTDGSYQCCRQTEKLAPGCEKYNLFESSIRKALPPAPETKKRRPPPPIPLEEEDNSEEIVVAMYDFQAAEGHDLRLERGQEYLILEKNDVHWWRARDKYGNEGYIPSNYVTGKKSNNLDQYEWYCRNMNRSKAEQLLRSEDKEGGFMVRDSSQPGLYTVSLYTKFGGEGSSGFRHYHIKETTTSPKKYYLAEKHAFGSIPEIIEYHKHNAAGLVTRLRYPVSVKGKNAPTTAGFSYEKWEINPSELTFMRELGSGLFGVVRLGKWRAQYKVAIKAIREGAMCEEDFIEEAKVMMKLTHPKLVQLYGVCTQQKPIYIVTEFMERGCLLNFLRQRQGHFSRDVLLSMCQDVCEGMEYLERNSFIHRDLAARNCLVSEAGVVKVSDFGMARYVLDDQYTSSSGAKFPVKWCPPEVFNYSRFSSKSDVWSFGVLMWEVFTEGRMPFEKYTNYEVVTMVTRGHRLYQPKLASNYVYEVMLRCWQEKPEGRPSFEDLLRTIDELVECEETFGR
Description: (§1) The degree of inhibition of a panel of kinases is determined using the in vitro HotSpot kinase assay (purified enzymes, ^33P-ATP, an appropriate substrate and 1 μM ATP).

[3] = molecular target: SRC (Homo sapiens, UniProt P12931); assay: Inhibition of a panel of kinases, in vitro HotSpot kinase assay: SRC; details: D-compounds panel data; 1 μM ATP
Sequence of SRC (P12931 whole entry): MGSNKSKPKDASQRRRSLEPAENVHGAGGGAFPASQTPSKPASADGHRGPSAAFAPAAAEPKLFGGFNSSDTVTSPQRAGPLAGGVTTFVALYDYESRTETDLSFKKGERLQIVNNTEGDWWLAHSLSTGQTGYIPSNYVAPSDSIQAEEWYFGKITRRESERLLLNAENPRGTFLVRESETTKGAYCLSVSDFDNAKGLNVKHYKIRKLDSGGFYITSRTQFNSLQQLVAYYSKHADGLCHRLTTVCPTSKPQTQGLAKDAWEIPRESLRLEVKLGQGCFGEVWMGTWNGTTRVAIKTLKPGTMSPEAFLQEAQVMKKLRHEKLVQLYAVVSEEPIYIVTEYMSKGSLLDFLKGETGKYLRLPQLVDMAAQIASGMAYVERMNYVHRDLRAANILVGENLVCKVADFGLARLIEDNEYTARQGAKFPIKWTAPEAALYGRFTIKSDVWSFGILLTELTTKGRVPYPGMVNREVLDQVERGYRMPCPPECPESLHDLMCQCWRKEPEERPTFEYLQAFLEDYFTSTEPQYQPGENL
Description: as §1

[4] = molecular target: T2, JAK3 (Homo sapiens, UniProt P52333); assay: Inhibition of a panel of kinases, in vitro HotSpot kinase assay: JAK3; details: D-compounds panel data; 1 μM ATP; read-out: IC50 JAK3
T2 sequence (P52333 1-1124): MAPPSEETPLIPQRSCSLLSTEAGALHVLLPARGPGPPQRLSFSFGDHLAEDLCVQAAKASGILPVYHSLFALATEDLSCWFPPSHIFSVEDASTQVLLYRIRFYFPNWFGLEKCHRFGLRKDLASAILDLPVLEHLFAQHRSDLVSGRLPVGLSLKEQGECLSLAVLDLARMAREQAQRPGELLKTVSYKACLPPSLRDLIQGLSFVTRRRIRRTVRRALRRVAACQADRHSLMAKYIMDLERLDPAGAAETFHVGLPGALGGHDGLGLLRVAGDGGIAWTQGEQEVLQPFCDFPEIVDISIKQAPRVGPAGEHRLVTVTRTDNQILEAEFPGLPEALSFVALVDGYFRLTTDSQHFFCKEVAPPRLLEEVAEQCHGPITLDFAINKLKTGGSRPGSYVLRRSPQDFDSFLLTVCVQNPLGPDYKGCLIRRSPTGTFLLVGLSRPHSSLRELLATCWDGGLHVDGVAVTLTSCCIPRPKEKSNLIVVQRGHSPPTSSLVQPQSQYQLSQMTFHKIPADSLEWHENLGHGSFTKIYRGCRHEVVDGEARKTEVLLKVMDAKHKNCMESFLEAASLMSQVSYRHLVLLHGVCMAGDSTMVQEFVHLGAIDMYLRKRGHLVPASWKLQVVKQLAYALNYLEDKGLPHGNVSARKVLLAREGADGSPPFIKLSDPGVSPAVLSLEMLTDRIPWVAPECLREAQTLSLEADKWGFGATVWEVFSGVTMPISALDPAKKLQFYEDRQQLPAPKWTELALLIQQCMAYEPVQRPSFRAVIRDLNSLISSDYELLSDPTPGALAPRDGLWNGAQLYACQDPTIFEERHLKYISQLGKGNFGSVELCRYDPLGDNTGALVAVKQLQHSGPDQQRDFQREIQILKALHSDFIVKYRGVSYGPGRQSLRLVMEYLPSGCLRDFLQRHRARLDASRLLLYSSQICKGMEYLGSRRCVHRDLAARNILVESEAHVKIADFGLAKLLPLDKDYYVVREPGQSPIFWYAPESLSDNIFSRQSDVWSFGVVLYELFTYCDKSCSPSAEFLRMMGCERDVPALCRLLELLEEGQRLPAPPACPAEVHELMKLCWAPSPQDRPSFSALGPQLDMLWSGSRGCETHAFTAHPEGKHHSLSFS

[5] = molecular target: T3, ITK (Homo sapiens, UniProt Q08881); assay: Inhibition of a panel of kinases, in vitro HotSpot kinase assay: ITK; details: D-compounds panel data; 1 μM ATP
T3 sequence (Q08881 1-620): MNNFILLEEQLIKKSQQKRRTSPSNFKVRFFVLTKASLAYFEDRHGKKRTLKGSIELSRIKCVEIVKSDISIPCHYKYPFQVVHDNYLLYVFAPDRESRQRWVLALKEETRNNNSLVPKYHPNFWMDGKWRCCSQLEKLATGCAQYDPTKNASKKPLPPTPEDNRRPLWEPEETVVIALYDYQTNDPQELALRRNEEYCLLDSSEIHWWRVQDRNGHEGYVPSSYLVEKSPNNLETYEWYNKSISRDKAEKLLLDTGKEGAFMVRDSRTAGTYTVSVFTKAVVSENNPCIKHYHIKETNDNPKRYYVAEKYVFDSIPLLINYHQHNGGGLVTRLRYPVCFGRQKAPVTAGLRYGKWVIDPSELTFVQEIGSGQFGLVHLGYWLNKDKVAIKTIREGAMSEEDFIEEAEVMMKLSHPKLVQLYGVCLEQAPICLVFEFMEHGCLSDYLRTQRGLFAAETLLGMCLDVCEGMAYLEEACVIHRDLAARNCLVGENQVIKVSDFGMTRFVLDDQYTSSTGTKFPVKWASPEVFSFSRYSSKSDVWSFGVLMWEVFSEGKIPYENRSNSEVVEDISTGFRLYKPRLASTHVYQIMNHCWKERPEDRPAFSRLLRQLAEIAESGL
Description: as §1

Sequence of LCK (P06239 whole entry): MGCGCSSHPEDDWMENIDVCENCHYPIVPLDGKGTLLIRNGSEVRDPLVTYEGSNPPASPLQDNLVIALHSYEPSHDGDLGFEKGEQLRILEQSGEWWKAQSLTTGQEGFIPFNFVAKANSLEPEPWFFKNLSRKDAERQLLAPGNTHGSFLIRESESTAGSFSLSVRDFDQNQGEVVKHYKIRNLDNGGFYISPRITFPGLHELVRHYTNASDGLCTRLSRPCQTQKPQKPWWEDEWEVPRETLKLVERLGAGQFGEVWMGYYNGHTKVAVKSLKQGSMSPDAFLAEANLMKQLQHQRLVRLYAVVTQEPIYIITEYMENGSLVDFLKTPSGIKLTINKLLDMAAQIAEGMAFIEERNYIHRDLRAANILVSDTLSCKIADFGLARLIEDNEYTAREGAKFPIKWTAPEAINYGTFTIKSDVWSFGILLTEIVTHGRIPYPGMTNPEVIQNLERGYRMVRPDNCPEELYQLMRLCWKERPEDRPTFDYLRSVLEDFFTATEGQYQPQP

IC50 [1] [nM] | IC50 [2] [nM] | IC50 [3] [nM] | IC50 [4] [nM] | IC50 [5] [nM] | Compound
100 to 1000 | 100 to 1000 | 100 to 1000 | 100 to 1000 | 1000 to 10000 | Cc1ccc(-c2cnc([C@@H]3CCCN(c4cnc(C(N)=O)c(Nc5cc(C)ns5)n4)[C@@H]3C)[nH]2)cc1 [Example D-131, 3-[(3-methyl-1,2-thiazol-5-yl)amino]-5-[(2R,3R)-2-methyl-3-[5-(4-methylphenyl)-1H-imidazol-2-yl]piperidin-1-yl]pyrazine-2-carboxamide]
< 10 | 10 to 100 | ≤ 10 | 100 to 1000 | 10 to 100 | C[C@@H]1[C@H](NC(=O)N(C)C)CCCN1c1cnc(C(N)=O)c(Nc2cc(C3CCN(C4CCCC4)CC3)ns2)n1 [Example D-163, 3-{[3-(1-cyclopentylpiperidin-4-yl)-1,2-thiazol-5-yl]amino}-5-[(2R,3R)-3-[(dimethylcarbamoyl)amino]-2-methylpiperidin-1-yl]pyrazine-2-carboxamide]
100 to 1000 | 1000 to 10000 | 100 to 1000 | 1000 to 10000 | 1000 to 10000 | C[C@@H]1[C@H](NC(=O)N(C)C)CCCN1c1cnc(C(N)=O)c(Nc2ccc3cccnc3c2)n1 [Example D-121, 5-[(2R,3R)-3-[(dimethylcarbamoyl)amino]-2-methylpiperidin-1-yl]-3-[(quinolin-7-yl)amino]pyrazine-2-carboxamide]
100 to 1000 | 10 to 100 | 100 to 1000 | > 10000 | 100 to 1000 | CC(C)n1cc(Nc2nc(N3CCC[C@@H](NC(=O)c4ccc(C5CC5)cc4F)[C@H]3C)cnc2C(N)=O)cn1 [Example D-123, 5-[(2R,3R)-3-(4-cyclopropyl-2-fluorobenzamido)-2-methylpiperidin-1-yl]-3-{[1-(propan-2-yl)-1H-pyrazol-4-yl]amino}pyrazine-2-carboxamide]
10 to 100 | 100 to 1000 | 100 to 1000 | 1000 to 10000 | 1000 to 10000 | Cc1cc(Nc2cc(N3CCC[C@@H](NC(=O)c4ccc(C5CC5)cc4F)[C@H]3C)cnc2C(N)=O)sn1 [Example D-116, 5-[(2R,3R)-3-(4-cyclopropyl-2-fluorobenzamido)-2-methylpiperidin-1-yl]-3-[(3-methyl-1,2-thiazol-5-yl)amino]pyridine-2-carboxamide]
10 to 100 | ≤ 10 | 10 to 100 | 1000 to 10000 | 10 to 100 | C[C@@H]1[C@H](NC(=O)c2ccc(C3CC3)cc2)CCCN1c1cnc(C(N)=O)c(Nc2ccc(OC3CCN(C4CCCC4)CC3)cc2)n1 [Example D-101, 3-({4-[(1-cyclopentylpiperidin-4-yl)oxy]phenyl}amino)-5-[(2R,3R)-3-(4-cyclopropylbenzamido)-2-methylpiperidin-1-yl]pyrazine-2-carboxamide]
10 to 100 | 10 to 100 | 100 to 1000 | 100 to 1000 | 100 to 1000 | C[C@@H]1[C@H](NC(=O)c2ccc(C3CC3)cc2F)CCCN1c1cnc(C(N)=O)c(Nc2ccc(CN3CCN(C)CC3)cc2)n1 [Example D-113, 5-[(2R,3R)-3-(4-cyclopropyl-2-fluorobenzamido)-2-methylpiperidin-1-yl]-3-({4-[(4-methylpiperazin-1-yl)methyl]phenyl}amino)pyrazine-2-carboxamide]
10 to 100 | 10 to 100 | 10 to 100 | 1000 to 10000 | 100 to 1000 | C[C@@H]1[C@H](n2ccc3cc(C4CC4)ccc3c2=O)CCCN1c1cnc(C(N)=O)c(Nc2ccc(N3CCN(C)CC3)cc2)n1 [Example D-6, 5-[(2R,3R)-3-(6-cyclopropyl-1-oxo-1,2-dihydroisoquinolin-2-yl)-2-methylpiperidin-1-yl]-3-{[4-(4-methylpiperazin-1-yl)phenyl]amino}pyrazine-2-carboxamide]
100 to 1000 | 10 to 100 | 100 to 1000 | 1000 to 10000 | 100 to 1000 | CN1CCC(n2cc(Nc3nc(N4CCC[C@@H](n5ccc6cc(C7CC7)ccc6c5=O)C4)cnc3C(N)=O)cn2)CC1 [Example D-141, 5-[(3R)-3-(6-cyclopropyl-1-oxo-1,2-dihydroisoquinolin-2-yl)piperidin-1-yl]-3-{[1-(1-methylpiperidin-4-yl)-1H-pyrazol-4-yl]amino}pyrazine-2-carboxamide]
1000 to 10000 | 100 to 1000 | 100 to 1000 | > 10000 | 100 to 1000 | C[C@@H]1[C@H](NC(=O)c2ccc(C3CC3)cc2F)CCCN1c1cnc(C(N)=O)c(Nc2ccc(S(=O)(=O)N3CCN(C)CC3)cc2)n1 [Example D-130, 5-[(2R,3R)-3-(4-cyclopropyl-2-fluorobenzamido)-2-methylpiperidin-1-yl]-3-({4-[(4-methylpiperazin-1-yl)sulfonyl]phenyl}amino)pyrazine-2-carboxamide]
100 to 1000 | 10 to 100 | 100 to 1000 | 1000 to 10000 | 100 to 1000 | CN1CCN(c2ccc(Nc3nc(N4CCC[C@@H](n5ccc6cc(C7CC7)ccc6c5=O)C4)cnc3C(N)=O)cc2)CC1 [Example D-165, 5-[(3R)-3-(6-cyclopropyl-1-oxo-1,2-dihydroisoquinolin-2-yl)piperidin-1-yl]-3-{[4-(4-methylpiperazin-1-yl)phenyl]amino}pyrazine-2-carboxamide]

Compound | IC50 [1] [nM] | IC50 [2] [nM] | IC50 [3] [nM] | IC50 [4] [nM] | IC50 [5] [nM]
C[C@@H]1[C@H](NC(=O)c2ccc(C3CC3)cc2)CCCN1c1cnc(C(N)=O)c(Nc2ccc(OC3C[C@H]4CC[C@@H](C3)N4C)cc2)n1 (stereo partly drawn) [Example D-106, 5-[(2R,3R)-3-(4-cyclopropylbenzamido)-2-methylpiperidin-1-yl]-3-[(4-{[(1R,5S)-8-methyl-8-azabicyclo[3.2.1]octan-3-yl]oxy}phenyl)amino]pyrazine-2-carboxamide] | 10 to 100 | ≤ 10 | 10 to 100 | 100 to 1000 | 10 to 100
